The target in assay [1] is BDNF/NT-3 growth factors receptor (Homo sapiens) (UniProt Q16620). Description: Selectivity interaction (KinomeScan (DiscoverX)) EUB0000607a NTRK2. As to conditions: at 10 µM.
Assay [2] addresses Myosin light chain kinase, smooth muscle (Homo sapiens, UniProt Q15746). The experiment in a line: Selectivity interaction (Kinase panel (Invitrogen)) EUB0000639a MYLK. As to conditions: at 200 nM.
Assay [3] addresses T1, Dual specificity mitogen-activated protein kinase kinase 4 (Homo sapiens) (UniProt P45985).
T1 sequence (whole entry): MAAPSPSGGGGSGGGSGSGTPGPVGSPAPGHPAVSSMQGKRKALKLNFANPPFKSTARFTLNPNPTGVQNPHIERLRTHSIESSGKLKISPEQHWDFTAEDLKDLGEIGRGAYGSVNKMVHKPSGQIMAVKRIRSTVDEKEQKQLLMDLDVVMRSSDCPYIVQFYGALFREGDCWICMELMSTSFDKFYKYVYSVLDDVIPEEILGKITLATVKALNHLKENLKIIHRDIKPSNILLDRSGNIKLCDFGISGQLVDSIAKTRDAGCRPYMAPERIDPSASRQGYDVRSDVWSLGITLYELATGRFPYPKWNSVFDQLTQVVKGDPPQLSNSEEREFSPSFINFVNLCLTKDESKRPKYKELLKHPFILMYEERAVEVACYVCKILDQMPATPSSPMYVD
The experiment in a line: Selectivity interaction (ActivX KiNativ screen (kinase selectivity in THP-1 cell lysates)) EUB0000639a MAP2K4. The assay is classed as subcellular. The following applies: lysate, at 0.01 µM.

Assay [4] concerns the target T2, Ephrin type-B receptor 4 (Homo sapiens) (UniProt P54760).
T2 sequence (whole entry): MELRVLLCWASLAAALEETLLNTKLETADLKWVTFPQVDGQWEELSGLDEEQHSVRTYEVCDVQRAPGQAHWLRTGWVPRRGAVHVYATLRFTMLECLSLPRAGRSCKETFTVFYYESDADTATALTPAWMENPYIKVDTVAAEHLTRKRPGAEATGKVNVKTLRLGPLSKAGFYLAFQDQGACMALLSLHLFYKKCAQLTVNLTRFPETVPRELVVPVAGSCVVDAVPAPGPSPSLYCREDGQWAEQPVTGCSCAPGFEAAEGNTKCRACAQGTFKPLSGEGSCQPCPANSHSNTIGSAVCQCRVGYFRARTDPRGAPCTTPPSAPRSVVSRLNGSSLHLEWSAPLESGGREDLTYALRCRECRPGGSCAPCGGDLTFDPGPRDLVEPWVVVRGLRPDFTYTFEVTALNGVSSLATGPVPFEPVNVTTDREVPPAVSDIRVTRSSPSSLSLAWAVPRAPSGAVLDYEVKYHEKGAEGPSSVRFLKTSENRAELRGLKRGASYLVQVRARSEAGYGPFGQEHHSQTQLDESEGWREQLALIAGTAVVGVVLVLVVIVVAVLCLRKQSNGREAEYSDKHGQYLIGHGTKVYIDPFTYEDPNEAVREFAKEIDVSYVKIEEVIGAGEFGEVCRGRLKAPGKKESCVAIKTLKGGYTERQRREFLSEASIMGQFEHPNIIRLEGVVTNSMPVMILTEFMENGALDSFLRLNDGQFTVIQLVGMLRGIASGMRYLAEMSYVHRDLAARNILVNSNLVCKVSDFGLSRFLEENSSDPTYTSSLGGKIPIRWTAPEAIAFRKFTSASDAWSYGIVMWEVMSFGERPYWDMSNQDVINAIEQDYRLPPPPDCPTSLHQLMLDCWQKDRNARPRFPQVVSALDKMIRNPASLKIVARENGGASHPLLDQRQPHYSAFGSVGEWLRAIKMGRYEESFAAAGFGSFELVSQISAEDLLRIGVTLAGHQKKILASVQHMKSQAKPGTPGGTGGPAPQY
As to conditions: at 10 µM.

Assay [5] deals with Bromodomain-containing protein 9 (Homo sapiens) (UniProt Q9H8M2). The experiment in a line: Selectivity interaction (Human bromodomain panel (DSF assay)) EUB0000233b BRD9. (In DSF a fluorescence change marks the thermal transition of the protein.)
Sequence of Bromodomain-containing protein 9 (Homo sapiens) (Q9H8M2 whole entry): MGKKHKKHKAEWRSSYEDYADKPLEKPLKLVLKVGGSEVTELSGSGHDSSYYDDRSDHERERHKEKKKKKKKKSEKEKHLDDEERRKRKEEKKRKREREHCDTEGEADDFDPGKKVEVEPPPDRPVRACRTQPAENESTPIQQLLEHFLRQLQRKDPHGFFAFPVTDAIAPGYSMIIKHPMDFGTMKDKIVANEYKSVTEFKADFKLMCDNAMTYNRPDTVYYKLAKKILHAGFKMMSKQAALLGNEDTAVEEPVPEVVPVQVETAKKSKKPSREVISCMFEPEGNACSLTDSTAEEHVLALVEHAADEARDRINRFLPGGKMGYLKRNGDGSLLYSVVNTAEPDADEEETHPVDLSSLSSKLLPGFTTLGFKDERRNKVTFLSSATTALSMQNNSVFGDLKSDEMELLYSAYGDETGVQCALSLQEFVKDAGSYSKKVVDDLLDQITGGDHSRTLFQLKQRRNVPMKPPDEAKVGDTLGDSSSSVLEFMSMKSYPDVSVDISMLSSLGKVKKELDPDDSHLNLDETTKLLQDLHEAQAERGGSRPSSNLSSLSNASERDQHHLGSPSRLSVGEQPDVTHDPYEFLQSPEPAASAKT
For assay [6], the target named is T3, Cytoplasmic tyrosine-protein kinase BMX (Homo sapiens) (UniProt P51813).
T3 sequence (whole entry): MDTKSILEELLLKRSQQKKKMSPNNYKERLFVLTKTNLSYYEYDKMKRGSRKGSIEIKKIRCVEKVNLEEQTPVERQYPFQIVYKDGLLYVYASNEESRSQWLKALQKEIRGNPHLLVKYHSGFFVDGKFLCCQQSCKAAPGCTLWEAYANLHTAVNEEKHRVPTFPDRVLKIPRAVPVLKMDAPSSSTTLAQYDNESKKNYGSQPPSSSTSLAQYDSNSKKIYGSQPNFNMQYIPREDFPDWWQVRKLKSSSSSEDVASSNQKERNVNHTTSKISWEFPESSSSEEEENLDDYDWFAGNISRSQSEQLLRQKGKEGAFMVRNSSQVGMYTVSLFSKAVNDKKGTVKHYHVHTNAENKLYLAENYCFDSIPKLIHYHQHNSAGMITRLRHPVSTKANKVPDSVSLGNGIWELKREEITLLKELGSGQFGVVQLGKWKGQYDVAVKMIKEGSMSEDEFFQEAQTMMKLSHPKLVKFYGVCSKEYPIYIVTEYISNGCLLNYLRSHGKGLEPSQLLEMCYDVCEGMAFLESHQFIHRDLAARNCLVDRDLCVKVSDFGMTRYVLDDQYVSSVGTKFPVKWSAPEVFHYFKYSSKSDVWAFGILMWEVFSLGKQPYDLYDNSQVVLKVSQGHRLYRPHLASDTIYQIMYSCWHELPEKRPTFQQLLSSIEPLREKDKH
Description: Selectivity interaction (Upstate Kinase Profiler service (Millipore)) EUB0000056c BMX. The following applies: at 1 µM.

The values that follow come from ChEMBL document CHEMBL5465560, “Selectivity Literature for EUbOPEN Chemogenomic Library” (2024).

Molecules are shown by their SMILES.

Sequence of Myosin light chain kinase, smooth muscle (Q15746 whole entry): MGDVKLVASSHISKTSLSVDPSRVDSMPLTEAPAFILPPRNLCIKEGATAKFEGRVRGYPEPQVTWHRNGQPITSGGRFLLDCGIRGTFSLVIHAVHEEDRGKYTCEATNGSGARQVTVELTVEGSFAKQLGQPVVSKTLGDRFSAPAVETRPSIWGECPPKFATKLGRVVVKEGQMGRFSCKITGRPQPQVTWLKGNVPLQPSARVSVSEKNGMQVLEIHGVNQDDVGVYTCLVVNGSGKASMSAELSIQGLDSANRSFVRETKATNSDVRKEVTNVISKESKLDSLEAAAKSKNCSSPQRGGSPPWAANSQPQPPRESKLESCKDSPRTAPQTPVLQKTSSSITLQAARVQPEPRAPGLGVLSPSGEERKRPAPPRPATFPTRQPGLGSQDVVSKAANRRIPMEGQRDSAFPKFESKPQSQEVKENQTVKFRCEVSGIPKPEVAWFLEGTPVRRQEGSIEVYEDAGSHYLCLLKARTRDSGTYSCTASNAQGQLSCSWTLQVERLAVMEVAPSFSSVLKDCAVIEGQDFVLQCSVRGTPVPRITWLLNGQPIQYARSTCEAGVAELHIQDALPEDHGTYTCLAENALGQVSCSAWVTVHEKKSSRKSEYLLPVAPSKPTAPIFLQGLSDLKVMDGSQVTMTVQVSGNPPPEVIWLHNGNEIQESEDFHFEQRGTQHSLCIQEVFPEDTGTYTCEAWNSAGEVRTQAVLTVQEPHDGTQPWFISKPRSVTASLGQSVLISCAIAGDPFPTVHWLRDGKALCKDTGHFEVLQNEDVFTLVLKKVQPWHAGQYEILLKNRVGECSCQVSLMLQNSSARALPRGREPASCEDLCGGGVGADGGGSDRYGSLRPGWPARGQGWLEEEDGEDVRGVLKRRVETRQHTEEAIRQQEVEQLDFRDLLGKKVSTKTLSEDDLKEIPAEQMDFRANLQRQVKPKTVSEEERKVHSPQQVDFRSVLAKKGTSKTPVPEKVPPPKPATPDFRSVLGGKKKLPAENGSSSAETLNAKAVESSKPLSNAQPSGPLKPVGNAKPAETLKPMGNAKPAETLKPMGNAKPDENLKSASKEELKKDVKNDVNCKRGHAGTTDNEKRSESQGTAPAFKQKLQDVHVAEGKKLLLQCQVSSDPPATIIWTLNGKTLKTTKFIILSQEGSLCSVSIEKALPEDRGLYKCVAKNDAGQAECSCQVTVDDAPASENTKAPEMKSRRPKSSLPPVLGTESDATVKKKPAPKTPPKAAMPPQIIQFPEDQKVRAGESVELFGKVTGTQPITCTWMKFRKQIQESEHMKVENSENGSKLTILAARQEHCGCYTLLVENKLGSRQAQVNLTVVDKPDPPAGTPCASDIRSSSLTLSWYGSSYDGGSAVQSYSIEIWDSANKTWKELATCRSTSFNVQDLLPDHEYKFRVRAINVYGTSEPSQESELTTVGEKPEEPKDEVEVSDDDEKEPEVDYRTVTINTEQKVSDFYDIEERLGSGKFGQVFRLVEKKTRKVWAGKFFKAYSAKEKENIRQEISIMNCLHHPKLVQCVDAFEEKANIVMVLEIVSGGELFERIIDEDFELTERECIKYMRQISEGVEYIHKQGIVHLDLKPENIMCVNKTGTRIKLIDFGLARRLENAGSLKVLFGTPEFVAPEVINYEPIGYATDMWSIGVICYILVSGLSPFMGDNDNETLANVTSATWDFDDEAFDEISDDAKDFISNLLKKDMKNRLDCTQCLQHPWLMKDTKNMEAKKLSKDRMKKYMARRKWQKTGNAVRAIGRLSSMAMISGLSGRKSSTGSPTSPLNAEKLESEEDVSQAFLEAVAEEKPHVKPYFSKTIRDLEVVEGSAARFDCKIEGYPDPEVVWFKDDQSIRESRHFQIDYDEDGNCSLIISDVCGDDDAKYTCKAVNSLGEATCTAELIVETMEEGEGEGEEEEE
Sequence of BDNF/NT-3 growth factors receptor (Homo sapiens) (Q16620 32-822 limits assumed): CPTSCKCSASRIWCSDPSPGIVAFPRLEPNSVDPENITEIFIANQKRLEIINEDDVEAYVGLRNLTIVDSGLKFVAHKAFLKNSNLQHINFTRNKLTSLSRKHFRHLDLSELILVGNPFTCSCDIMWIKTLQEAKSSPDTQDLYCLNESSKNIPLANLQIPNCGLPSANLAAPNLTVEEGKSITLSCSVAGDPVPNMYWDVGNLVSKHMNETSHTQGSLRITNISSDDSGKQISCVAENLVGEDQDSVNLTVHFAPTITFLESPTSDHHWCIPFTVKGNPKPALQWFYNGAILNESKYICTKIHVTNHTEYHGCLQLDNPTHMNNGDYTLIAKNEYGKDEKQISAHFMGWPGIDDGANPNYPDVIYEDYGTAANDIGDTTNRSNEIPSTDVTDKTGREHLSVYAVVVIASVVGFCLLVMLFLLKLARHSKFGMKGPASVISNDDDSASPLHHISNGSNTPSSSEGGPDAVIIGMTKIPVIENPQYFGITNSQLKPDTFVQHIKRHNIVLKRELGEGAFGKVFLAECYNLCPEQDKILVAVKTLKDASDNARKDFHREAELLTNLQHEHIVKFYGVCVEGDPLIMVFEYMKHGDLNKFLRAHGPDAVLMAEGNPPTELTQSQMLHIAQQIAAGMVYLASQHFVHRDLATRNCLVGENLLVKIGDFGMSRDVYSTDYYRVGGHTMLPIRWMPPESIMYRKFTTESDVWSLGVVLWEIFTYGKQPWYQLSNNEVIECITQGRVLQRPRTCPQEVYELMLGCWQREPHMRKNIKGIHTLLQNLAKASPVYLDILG

In the case of `CNC(=O)Nc1ccc(-c2nc(N3CC4CCC(C3)O4)c3cnn(C4CCC5(CC4)OCCO5)c3n2)cc1`, the % of control in assay [1] was 100%. For `CC[C@@H]1[C@H](F)C(=O)N[C@@H]1COc1nccc2cc(C(N)=O)c(OC)cc12` [ZIMLOVISERTIB], the % of inhibition in assay [2] was 8.89%; in assay [3], -5.8%.

`CCN(CC)CCCCNc1ncc2cc(-c3cc(OC)cc(OC)c3)c(NC(=O)NC(C)(C)C)nc2n1` displayed a % of control in assay [4] of 100%. Take `CN(C)CCCOc1ccc(-c2cc(NCCCn3cccn3)nc(S(C)(=O)=O)n2)cc1`: in assay [5], the dTM turned out to be 4.8 K.

Consider `Cc1ccc(-c2ccc3c(ccc4sc5c(c43)NC[C@@H](C)NC5=O)n2)cn1`, for which, in assay [6], the % of inhibition is 4%.
